Laboratory results taken from ChEMBL document CHEMBL1201862, “PubChem BioAssay data set” (2004).
Activity calls are given as the source filed them.

Legend:
[1] = target: FAD-linked sulfhydryl oxidase ALR (Homo sapiens, UniProt P55789); experiment: inhibitors of human ALR sulfhydryl oxidase, dose response, biochemical, H2O2 detection, luminescence, cherry-pick (AID 493248)
[2] = target: T1, DNA repair protein RAD52 homolog (Homo sapiens, UniProt P43351); format: functional, biochemical
T1 sequence (P43351 whole entry): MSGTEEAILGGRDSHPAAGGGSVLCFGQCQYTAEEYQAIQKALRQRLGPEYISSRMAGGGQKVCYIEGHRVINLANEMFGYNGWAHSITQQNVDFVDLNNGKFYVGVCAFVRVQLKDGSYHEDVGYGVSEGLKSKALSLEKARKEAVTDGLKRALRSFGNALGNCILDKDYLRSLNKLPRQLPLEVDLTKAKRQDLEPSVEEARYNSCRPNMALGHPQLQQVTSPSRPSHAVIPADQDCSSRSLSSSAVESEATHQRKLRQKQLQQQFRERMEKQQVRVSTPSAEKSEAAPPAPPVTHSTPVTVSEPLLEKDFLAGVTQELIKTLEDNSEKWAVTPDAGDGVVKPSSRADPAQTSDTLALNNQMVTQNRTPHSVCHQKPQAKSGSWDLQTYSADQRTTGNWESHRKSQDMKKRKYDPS

[3] = target: Histone-lysine N-methyltransferase NSD2 (Homo sapiens, UniProt O96028); format: biochemical
Sequence of Histone-lysine N-methyltransferase NSD2 (O96028 whole entry): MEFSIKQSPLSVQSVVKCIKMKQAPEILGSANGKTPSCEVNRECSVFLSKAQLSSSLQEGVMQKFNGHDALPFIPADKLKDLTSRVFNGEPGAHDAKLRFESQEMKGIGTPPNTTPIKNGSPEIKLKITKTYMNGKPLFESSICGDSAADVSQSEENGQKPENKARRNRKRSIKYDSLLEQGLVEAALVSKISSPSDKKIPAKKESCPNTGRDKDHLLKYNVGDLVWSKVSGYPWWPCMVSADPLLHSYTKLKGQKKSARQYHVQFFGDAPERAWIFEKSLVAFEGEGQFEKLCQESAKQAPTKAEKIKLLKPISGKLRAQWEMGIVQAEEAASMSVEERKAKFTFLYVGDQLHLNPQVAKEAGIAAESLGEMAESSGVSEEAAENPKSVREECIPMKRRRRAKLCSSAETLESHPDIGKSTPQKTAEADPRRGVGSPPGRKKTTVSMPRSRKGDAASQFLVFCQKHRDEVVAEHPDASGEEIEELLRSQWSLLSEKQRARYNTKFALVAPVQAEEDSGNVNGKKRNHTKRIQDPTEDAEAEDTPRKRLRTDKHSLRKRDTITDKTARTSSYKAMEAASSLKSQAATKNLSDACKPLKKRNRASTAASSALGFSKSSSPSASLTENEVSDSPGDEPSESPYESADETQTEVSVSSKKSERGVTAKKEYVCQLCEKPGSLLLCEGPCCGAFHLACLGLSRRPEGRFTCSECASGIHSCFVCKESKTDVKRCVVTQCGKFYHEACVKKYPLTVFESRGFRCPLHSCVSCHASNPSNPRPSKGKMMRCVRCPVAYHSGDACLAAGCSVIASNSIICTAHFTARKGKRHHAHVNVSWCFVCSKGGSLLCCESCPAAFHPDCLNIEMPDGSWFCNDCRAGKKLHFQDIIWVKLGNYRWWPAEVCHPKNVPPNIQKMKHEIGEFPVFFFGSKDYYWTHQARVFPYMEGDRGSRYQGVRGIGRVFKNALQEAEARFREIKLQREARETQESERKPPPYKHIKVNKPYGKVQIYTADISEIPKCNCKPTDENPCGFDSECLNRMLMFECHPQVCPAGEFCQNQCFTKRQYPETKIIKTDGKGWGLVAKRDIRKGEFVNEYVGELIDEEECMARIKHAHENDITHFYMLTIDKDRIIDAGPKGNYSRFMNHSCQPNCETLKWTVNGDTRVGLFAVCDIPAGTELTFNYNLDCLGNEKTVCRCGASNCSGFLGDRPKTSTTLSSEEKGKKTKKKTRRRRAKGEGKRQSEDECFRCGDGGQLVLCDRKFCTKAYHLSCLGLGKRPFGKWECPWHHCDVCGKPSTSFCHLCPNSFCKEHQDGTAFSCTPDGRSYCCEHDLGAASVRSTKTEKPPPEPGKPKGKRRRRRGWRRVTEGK

[4] = target: Long-chain-fatty-acid--AMP ligase FadD28 (Mycobacterium tuberculosis, UniProt P9WQ59); experiment: Fluorescence polarization aasay to screen for inhibitors that compete for the binding of FadD28 to a bisubstrate Measured in Biochemical System Using Plate Reader - 2147-01_Inhibitor_Dose_CherryPick_Activity.; format: functional, Mycobacterium tuberculosis H37Rv
Sequence of Long-chain-fatty-acid--AMP ligase FadD28 (P9WQ59 whole entry): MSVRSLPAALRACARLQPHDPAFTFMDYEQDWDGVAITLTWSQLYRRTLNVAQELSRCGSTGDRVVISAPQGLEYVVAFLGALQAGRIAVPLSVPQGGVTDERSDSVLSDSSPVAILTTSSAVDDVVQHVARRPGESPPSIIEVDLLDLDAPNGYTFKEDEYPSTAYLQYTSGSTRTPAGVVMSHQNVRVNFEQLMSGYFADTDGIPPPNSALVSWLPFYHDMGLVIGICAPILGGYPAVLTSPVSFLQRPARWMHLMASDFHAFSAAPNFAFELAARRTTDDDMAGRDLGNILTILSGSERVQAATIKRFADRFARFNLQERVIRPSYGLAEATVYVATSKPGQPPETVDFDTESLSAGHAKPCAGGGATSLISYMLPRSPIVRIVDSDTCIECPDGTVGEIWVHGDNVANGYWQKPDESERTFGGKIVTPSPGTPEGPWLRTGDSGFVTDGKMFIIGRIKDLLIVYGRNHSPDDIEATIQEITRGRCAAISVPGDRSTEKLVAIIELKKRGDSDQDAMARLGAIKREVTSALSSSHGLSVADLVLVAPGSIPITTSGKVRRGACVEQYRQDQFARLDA

[5] = cells; format: functional, cell-based
[6] = target: T2, Nuclear receptor subfamily 0 group B member 1 (Homo sapiens, UniProt P51843); format: functional, cell-based;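 also: HEK293T cells transfected with SF-1 and DAX-1 plus StAR promoter luciferase reporter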
T2 sequence (P51843 whole entry): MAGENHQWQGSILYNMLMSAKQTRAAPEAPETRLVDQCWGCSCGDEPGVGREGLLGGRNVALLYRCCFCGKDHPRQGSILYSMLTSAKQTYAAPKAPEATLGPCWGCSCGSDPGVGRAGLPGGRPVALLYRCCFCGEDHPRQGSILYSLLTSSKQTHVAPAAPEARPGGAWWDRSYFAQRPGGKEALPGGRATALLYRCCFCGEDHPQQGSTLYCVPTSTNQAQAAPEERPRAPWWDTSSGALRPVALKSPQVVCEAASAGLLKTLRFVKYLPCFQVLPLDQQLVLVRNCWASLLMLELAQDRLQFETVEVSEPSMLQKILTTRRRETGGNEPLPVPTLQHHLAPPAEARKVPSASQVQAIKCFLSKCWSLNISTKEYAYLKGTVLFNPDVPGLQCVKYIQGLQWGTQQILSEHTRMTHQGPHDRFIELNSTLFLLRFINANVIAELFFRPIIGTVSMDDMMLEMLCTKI

[7] = LMP1-driven NF-kB reporter inhibition, dose response, cell-based, luciferase reporter, luminescence, dry powder, set 2 (AID 624376); format: functional
[8] = HEK293T cytotoxicity, dose response, cytotoxicity control for miR-122 modulator project, cell-based, activator set, cherry-pick (AID 720690); format: functional;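 also: HEK293T human cells scored for general mammalian cytotoxicity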
[9] = NIH/3T3 fibroblast cytotoxicity, dose response, cytotoxicity control, cell-based, plate reader, dry powder, set 2 (AID 652280); format: functional; conditions: NIH3T3
[10] = T. cruzi growth inhibition in host cells, dose response, cell-based, plate reader, dry powder, set 2 (AID 652275); format: functional
[11] = target: T3, Carboxy-terminal domain RNA polymerase II polypeptide A small phosphatase 1 (Homo sapiens, UniProt Q9GZU7); experiment: inhibitors of CTDSP1, concentration-response testing, biochemical assay, absorbance-based, actives from ultra-high-throughput screening (AID 540297); format: functional
T3 sequence (Q9GZU7 whole entry): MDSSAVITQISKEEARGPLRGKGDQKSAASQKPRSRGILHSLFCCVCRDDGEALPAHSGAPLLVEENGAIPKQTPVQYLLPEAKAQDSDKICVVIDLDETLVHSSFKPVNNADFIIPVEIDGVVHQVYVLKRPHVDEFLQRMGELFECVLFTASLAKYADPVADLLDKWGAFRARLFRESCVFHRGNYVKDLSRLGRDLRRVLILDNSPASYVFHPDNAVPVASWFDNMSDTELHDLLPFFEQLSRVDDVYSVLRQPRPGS

[12] = target: T4, Low molecular weight phosphotyrosine protein phosphatase (Homo sapiens, UniProt P24666); format: functional; conditions: read-out: IC50_Mean
T4 sequence (P24666 whole entry): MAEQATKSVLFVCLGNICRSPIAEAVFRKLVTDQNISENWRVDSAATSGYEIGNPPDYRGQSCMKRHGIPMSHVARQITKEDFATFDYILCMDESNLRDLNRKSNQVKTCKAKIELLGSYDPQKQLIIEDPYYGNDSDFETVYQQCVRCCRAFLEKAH

[13] = target: T4, Low molecular weight phosphotyrosine protein phosphatase; format: functional; conditions: read-out: IC50_Mean; remark: listed apart in the source
[14] = target: Large T antigen (Simian virus 40, UniProt P03070); format: functional, Betapolyomavirus macacae;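 also: Confirmatory-stage PubChem screen for compounds that inhibit SV40 T antigen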
Sequence of Large T antigen (P03070 whole entry): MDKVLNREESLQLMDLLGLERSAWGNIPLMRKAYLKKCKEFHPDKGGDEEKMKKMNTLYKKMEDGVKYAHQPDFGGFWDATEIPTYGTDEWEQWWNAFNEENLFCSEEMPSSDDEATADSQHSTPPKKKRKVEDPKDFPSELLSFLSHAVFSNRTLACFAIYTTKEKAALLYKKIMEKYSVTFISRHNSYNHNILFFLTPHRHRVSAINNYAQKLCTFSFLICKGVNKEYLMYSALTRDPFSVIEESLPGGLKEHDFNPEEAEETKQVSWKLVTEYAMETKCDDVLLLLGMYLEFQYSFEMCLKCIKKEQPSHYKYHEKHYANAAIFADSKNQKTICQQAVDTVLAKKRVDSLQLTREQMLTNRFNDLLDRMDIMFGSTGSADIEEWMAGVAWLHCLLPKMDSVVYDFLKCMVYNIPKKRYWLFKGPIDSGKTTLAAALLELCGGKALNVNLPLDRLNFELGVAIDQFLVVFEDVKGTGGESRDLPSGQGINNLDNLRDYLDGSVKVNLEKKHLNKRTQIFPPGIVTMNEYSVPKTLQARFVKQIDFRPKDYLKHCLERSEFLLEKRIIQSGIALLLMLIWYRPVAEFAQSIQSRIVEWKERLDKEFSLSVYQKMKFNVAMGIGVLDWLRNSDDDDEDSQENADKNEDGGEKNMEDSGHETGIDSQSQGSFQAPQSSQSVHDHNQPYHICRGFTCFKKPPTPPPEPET

[15] = HEK293T cytotoxicity, dose response, cytotoxicity control for miR-122 modulator project, cell-based, inhibitor set, cherry-pick, set 2 (AID 720697); format: functional

Sequence of FAD-linked sulfhydryl oxidase ALR (P55789 whole entry): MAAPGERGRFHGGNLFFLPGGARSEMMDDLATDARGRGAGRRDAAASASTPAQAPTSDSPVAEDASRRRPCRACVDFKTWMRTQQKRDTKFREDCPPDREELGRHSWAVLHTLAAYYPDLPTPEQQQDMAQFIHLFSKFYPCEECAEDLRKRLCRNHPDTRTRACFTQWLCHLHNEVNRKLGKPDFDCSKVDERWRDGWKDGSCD

With `CCN1CCN(c2ccc(N)cc2)CC1` the AC50 [1] was 4.5 µM (active), the AC50 [2] was 1.47 µM (active) and the AC50 [3] was > 20 µM (inactive).
With `CCOC(=O)c1ccc(NC(=S)N(CCN(C)C)Cc2cccs2)cc1` the AC50 [4] was > 100 µM (inactive).
With `Cc1cc(C(=O)NCCc2ccc(Cl)cc2)c(C)o1` the IC50 [5] was > 67.5 µM (inactive) and the IC50 [6] was > 67.5 µM (inactive).
In the case of `COc1ccc(NC(=O)N(C)C[C@@H]2Oc3cc(C#CCC(C)C)ccc3S(=O)(=O)N([C@@H](C)CO)C[C@@H]2C)cc1`, the AbsAC35 [7] is reported as 43.42 µM and the AC50 [8] is reported as 26.8 µM (active).
For `OC[C@H]1[C@H](c2ccc(-c3cccc(F)c3)cc2)[C@@H]2CN(CCC(F)(F)F)CCCCN12`, the AC50 [9] was 3.34 µM (active) and the AC50 [10] was 0.53 µM (active).
With `CCc1ccc(NC(=O)C[S+]([O-])CC(=O)Nc2ccc(N3CCOCC3)cc2)cc1` (stereo not given) the IC50 [11] was 5.78 µM (active), the IC50 [12] was 17.4 µM (active) and the IC50 [13] was 16.8 µM (active).
For `CCN1CCN(c2ccc(N)cc2C)CC1`, the IC50 [14] was 6.6 µM (active), the AC50 [1] was 1.73 µM (active) and the AC50 [2] was 0.278 µM (active). For the same compound, the AC50 [3] was > 20 µM (inactive).
For `C[C@@H]1CN([C@@H](C)CO)C(=O)Cc2cc(NS(=O)(=O)c3ccc(Cl)cc3)ccc2O[C@H]1CN(C)Cc1ccc(C(F)(F)F)cc1`, the AC50 [15] was < 0.195 µM (active) and the AC50 [8] was 33.8 µM (active).
For `O=C(NCCSCc1ccc(Cl)cc1Cl)c1ccc(CN2CCOCC2)cc1`, the AC50 [4] was 15.7 µM (active).
